Data: US20240246908A1 (ORION CORPORATION, priority 2021, published 2024)
pIC50: −log10 of the molar value.

Tested on: YAP-TEAD
Assay: TEAD inhibition, Hippo Pathway TEAD Reporter MCF-7 luciferase assay
Assay type: cell-based
Details: Homo sapiens, MCF7, 24 h, Hippo Pathway TEAD Reporter MCF-7 cells, luciferase activity after 24 h; read-out: IC50 of the test compounds on YAP-TEAD inhibition (Group)
How it was run: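 MCF-7 cells carrying a TEAD-responsive firefly luciferase reporter, with nuclear YAP1 driving constitutive expression, were treated the day after plating with compounds (11 concentrations, 4 replicates; 0.1% DMSO control). After 24 h, luciferase was read by ONE-Glo luminescence and IC50 determined.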

Molecule `CN1C(=O)NCC1C(=O)Nc1cc(Oc2ccc(C(F)(F)F)cc2)cc2c1OCO2` (stereo not drawn) [Compound 186, 3-Methyl-2-oxo-N-(6-(4-(trifluoromethyl)phenoxy)benzo[d][1,3]dioxol-4-yl)-imidazolidine-4-carboxamide] has a pIC50 of over 7.30.
`COc1ccc(Oc2ccc(C(F)(F)F)cc2)cc1NC(=O)[C@@H]1CN(C)C(=O)N1` [Compound 332, (S)—N-(2-Methoxy-5-(4-(trifluoromethyl)phenoxy)phenyl)-1-methyl-2-oxo-imidazolidine-4-carboxamide] showed a pIC50 of 5.70 to 6.52.
`CN1C(=O)NCC1C(=O)Nc1cc(Oc2ccc(C(F)(F)F)cc2)cc2c1OCCO2` (stereo not drawn) [Compound 192, 3-Methyl-2-oxo-N-(7-(4-(trifluoromethyl)phenoxy)-2,3-dihydrobenzo[b][1,4]-dioxin-5-yl)imidazolidine-4-carboxamide] was tested, and the pIC50 was over 7.30.
`CN1C(=O)CCC1C(=O)Nc1cc(COC2CCC(F)(F)CC2)cc2c1OCCO2` (stereo not drawn) [Compound 113, N-(7-(((4,4-Difluorocyclohexyl)oxy)methyl)-2,3-dihydrobenzo[b][1,4]dioxin-5-yl)-1-methyl-5-oxopyrrolidine-2-carboxamide] was tested, and the pIC50 was 5.70 to 6.52.
In the case of `COc1ccc(Oc2cc(C(F)(F)F)ccn2)cc1NC(=O)[C@@H]1CCC(=O)N1C` [Compound 394, (S)—N-(2-Methoxy-5-((4-(trifluoromethyl)pyridin-2-yl)oxy)phenyl)-1-methyl-5-oxopyrrolidine-2-carboxamide], the pIC50 was 5.70 to 6.52.
Molecule `COc1ccc(Oc2ccc(C(F)(F)F)cc2)cc1NC(=O)C1CC(=O)N(C)C1` (stereo not drawn) [Compound 349, N-(2-Methoxy-5-(4-(trifluoromethyl)phenoxy)phenyl)-1-methyl-5-oxo-pyrrolidine-3-carboxamide] has a pIC50 of over 7.30.
`O=C1CCC(C(=O)Nc2cc(Oc3ccc(C(F)(F)F)cn3)cc3c2OCC3)CN1` (stereo not drawn) [Compound 161, 6-Oxo-N-(5-((5-(trifluoromethyl)pyridin-2-yl)oxy)-2,3-dihydrobenzofuran-7-yl)piperidine-3-carboxamide] gave a pIC50 of 6.52 to 7.30.
`COc1c(F)cc(COc2cccc(F)c2)cc1NC(=O)C1CCC(=O)N1C` (stereo not drawn) [Compound 35, N-(3-Fluoro-5-((3-fluorophenoxy)methyl)-2-methoxyphenyl)-1-methyl-5-oxo-pyrrolidine-2-carboxamide] showed a pIC50 of 5.70 to 6.52.
In the case of `COc1ccc(Oc2cccc(Br)c2)cc1NC(=O)C1CCC(=O)N1C` (stereo not drawn) [Compound 299, N-(5-(3-Bromophenoxy)-2-methoxyphenyl)-1-methyl-5-oxopyrrolidine-2-carboxamide], the pIC50 was over 7.30.
Molecule `COc1ccc(Oc2ccc(C(F)(F)F)cn2)cc1NC(=O)[C@H]1CNC(=O)N1C` [Compound 124, (R)—N-(2-Methoxy-5-((5-(trifluoromethyl)pyridin-2-yl)oxy)phenyl)-3-methyl-2-oxoimidazolidine-4-carboxamide] has a pIC50 of 5.70 to 6.52.
`CN1C(=O)CCC1C(=O)Nc1cc(COc2cccc(F)c2)cc2c1OCCO2` (stereo not drawn) [Compound 58, N-(7-((3-Fluorophenoxy)methyl)-2,3-dihydrobenzo[b][1,4]dioxin-5-yl)-1-methyl-5-oxopyrrolidine-2-carboxamide] was tested, and the pIC50 was 5.70 to 6.52.
`COc1ccc(Oc2ccc(C(F)(F)F)cc2)cc1N(C)C(=O)[C@@H]1CCC(=O)N1C` [Compound 417, (S)—N-(2-Methoxy-5-(4-(trifluoromethyl)phenoxy)phenyl)-N,1-dimethyl-5-oxopyrrolidine-2-carboxamide] showed a pIC50 of 6.52 to 7.30.
For `COc1cc(NC(=O)C2CCC(=O)N2C)cc(OC2CCC(C(F)(F)F)CC2)c1` (stereo not drawn) [Compound 264], the pIC50 was over 7.30.
`COc1ccc(Oc2ccc(Cl)cc2)cc1NC(=O)[C@H]1CCC(=O)N1C` [Compound 308, (R)—N-(5-(4-Chlorophenoxy)-2-methoxyphenyl)-1-methyl-5-oxopyrrolidine-2-carboxamide] was tested, and the pIC50 was over 7.30.
Work on `COc1ccc(Oc2ccc(C(F)(F)F)cc2)cc1NC(=O)C1CCCC(=O)N1C` (stereo not drawn) [Compound 320, N-(2-Methoxy-5-(4-(trifluoromethyl)phenoxy)phenyl)-1-methyl-6-oxo-piperidine-2-carboxamide] yielded a pIC50 of over 7.30.
`COc1ccc(Oc2cccc(C(F)(F)F)c2)cc1NC(=O)C1CCC(=O)N1C` (stereo not drawn) [Compound 11, N-(2-Methoxy-5-(3-(trifluoromethyl)phenoxy)phenyl)-1-methyl-5-oxopyrro-lidine-2-carboxamide] gave a pIC50 of 6.52 to 7.30.
Work on `COc1cc(F)c(Oc2ccc(C(F)(F)F)cc2)cc1NC(=O)C1CNC(=O)N1C` (stereo not drawn) [Compound 382, N-(4-Fluoro-2-methoxy-5-(4-(trifluoromethyl)phenoxy)phenyl)-3-methyl-2-oxoimidazolidine-4-carboxamide] yielded a pIC50 of over 7.30.
`COc1ccc(O[C@H]2CC[C@H](C(F)(F)F)CC2)cc1NC(=O)[C@@H]1CCC(=O)N1C` [Compound 105, (S)—N-(2-Methoxy-5-(((trans)-4-(trifluoromethyl)cyclohexyl)oxy)phenyl)-1-methyl-5-oxopyrrolidine-2-carboxamide] was tested, and the pIC50 was over 7.30.
Work on `COc1ccc(Oc2ccc(C(F)F)cc2)cc1NC(=O)[C@H]1CCC(=O)N1C` [Compound 319, (R)—N-(5-(4-(Difluoromethyl)phenoxy)-2-methoxyphenyl)-1-methyl-5-oxo-pyrrolidine-2-carboxamide] yielded a pIC50 of over 7.30.
`COc1ccc(Oc2ccc(C(F)(F)F)cc2)cc1NC(=O)C1CCN(C)C(=O)C1` (stereo not drawn) [Compound 323, N-(2-Methoxy-5-(4-(trifluoromethyl)phenoxy)phenyl)-1-methyl-2-oxo-piperidine-4-carboxamide] was tested, and the pIC50 was 5.70 to 6.52.
With `COc1ccc(Oc2cccc(C(F)(F)F)c2)cc1NC(=O)C1CCS(=O)(=O)C1` (stereo not drawn) [Compound 12, N-(2-Methoxy-5-(3-(trifluoromethyl)phenoxy)phenyl)tetrahydrothiophene-3-carboxamide 1,1-dioxide] the pIC50 was 5.70 to 6.52.
`COc1ccc(Oc2ccc(F)c(F)c2)cc1NC(=O)C1CCC(=O)N1C1CC1` (stereo not drawn) [Compound 111, 1-Cyclopropyl-N-(5-(3,4-difluorophenoxy)-2-methoxyphenyl)-5-oxopyrrolidine-2-carboxamide] was tested, and the pIC50 was 6.52 to 7.30.
Molecule `COc1ccc(Oc2ccc(C(F)F)cc2)cc1NC(=O)[C@@H]1CCC(=O)N1C` [Compound 313, (S)—N-(5-(4-(Difluoromethyl)phenoxy)-2-methoxyphenyl)-1-methyl-5-oxo-pyrrolidine-2-carboxamide] has a pIC50 of over 7.30.
In the case of `O=C(Nc1cc(Oc2ccc(C(F)(F)F)cc2)cc2c1OCCO2)C1CCC(=O)N1C1CC1` (stereo not drawn) [Compound 114, 1-Cyclopropyl-5-oxo-N-(7-(4-(trifluoromethyl)phenoxy)-2,3-dihydrobenzo[b][1,4]dioxin-5-yl)pyrrolidine-2-carboxamide], the pIC50 was over 7.30.
Molecule `CN1C(=O)CCC1C(=O)Nc1cc(Oc2cccc(C(F)(F)F)c2)ccc1Br` (stereo not drawn) [Compound 366, N-(2-Bromo-5-(3-(trifluoromethyl)phenoxy)phenyl)-1-methyl-5-oxopyrrolidine-2-carboxamide] has a pIC50 of 5.70 to 6.52.
Work on `COc1ccc(Oc2ccc(Cl)cc2)cc1NC(=O)C1CCC(=O)N1C` (stereo not drawn) [Compound 304, N-(5-(4-Chlorophenoxy)-2-methoxyphenyl)-1-methyl-5-oxopyrrolidine-2-carboxamide] yielded a pIC50 of over 7.30.
For `CN1C(=O)NC[C@H]1C(=O)Nc1cc(Oc2ccc(C(F)(F)F)cn2)cc2c1ncn2C` [Compound 218, (S)-3-Methyl-N-(1-methyl-6-((5-(trifluoromethyl)pyridin-2-yl)oxy)-1H-benzo-[d]imidazol-4-yl)-2-oxoimidazolidine-4-carboxamide], the pIC50 was 6.52 to 7.30.
